# Reference: patent US20230312587A1, “PTERIDINONE COMPOUNDS AND USES THEREOF” (Vertex Pharmaceutical Incorporated, priority 2018, published 2023)
# Tested on: β-catenin-TCF-mediated reporter transcription activity in Colo 205 cells
# Assay: Colo 205 reporter assay (TCF/LEF luciferase)
# Type: cell-based
# Conditions: Homo sapiens, COLO 205, 5 h, Colo 205 TCF/LEF luciferase reporter, five hours after addition of compound; read-out: TCF reporter Colo205 IC50
# Procedure, shortened: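 Luciferase signal from a TCF/LEF-driven reporter, stably integrated in Colo 205 colon cancer cells, was measured 5 h after compound addition.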
row,Structure (SMILES),IC50 [nM]
1,"COc1cc(O[C@H]2C[C@H](Nc3nc(C)c4c(n3)N(C)[C@@H](C)C(=O)N4)C2)ccc1F [Compound 370, (7S)-2-((trans-3-(4-fluoro-3-methoxyphenoxy)cyclobutyl)amino)-4,7,8-trimethyl-7,8-dihydropteridin-6(5H)-one]",< 300
2,"C[C@H]1C(=O)Nc2cnc(NCc3cnn(Cc4ccc(F)cc4)c3)nc2N1C [Compound 41, (7S)-2-(((1-(4-fluorobenzyl)-1H-pyrazol-4-yl)methyl)amino)-7,8-dimethyl-7,8-dihydropteridin-6(5H)-one]",300 to 1000
3,"Cc1nc(N[C@H]2CO[C@@H](COc3cc(F)c(F)c(F)c3)C2)nc2c1NC(=O)[C@H](C)N2C [Compound 309, (7S)-4,7,8-trimethyl-2-(((3R,5R)-5-((3,4,5-trifluorophenoxy)methyl)-tetrahydrofuran-3-yl)amino)-7,8-dihydropteridin-6(5H)-one]",300 to 1000
4,"Cc1nc(NCc2cnn(CCCc3ccc(F)cc3)c2)nc2c1NC(=O)[C@H](C)N2C [Compound 104, (7S)-2-(((1-(3-(4-fluorophenyl)propyl)-1H-pyrazol-4-yl)methyl)amino)-4,7,8-trimethyl-7,8-dihydropteridin-6(5H)-one]",< 300
5,"COc1c(F)cc(OC[C@H]2C[C@@H](Nc3nc(C)c4c(n3)N(C)[C@@H](C)C(=O)N4)C2)cc1F [Compound 284, (7S)-2-((cis-3-((3,5-difluoro-4-methoxyphenoxy)methyl)cyclobutyl)amino)-4,7,8-trimethyl-7,8-dihydropteridin-6(5H)-one]",< 300
6,"Cc1nc(NCc2cnn(C3CCN(c4ccc(F)cc4)CC3)c2)nc2c1NC(=O)[C@H](C)N2C [Compound 130, (7S)-2-(((1-(1-(4-fluorophenyl)piperidin-4-yl)-1H-pyrazol-4-yl)methyl)amino)-4,7,8-trimethyl-7,8-dihydropteridin-6(5H)-one]",≥ 5000
7,"CC[C@H]1C(=O)N(C)c2cnc(NCc3cnn(Cc4cc(F)c(F)c(F)c4)c3)nc2N1C(C)C [Compound 36, (7S)-7-ethyl-8-isopropyl-5-methyl-2-(((1-(3,4,5-trifluorobenzyl)-1H-pyrazol-4-yl)methyl)amino)-7,8-dihydropteridin-6(5H)-one]",< 300
8,"CNc1ccc(Cn2cc(CNc3nc(C)c4c(n3)N(C)[C@@H](C)C(=O)N4)cn2)cn1 [Compound 10, (7S)-4,7,8-trimethyl-2-(((1-((6-(methylamino)pyridin-3-yl)methyl)-1H-pyrazol-4-yl)methyl)amino)-7,8-dihydropteridin-6(5H)-one]",≥ 5000
9,"Cc1nc(N[C@H]2C[C@H](NC(=O)Nc3cc(F)c(F)c(F)c3)C2)nc2c1NC(=O)[C@H](C)N2C [Compound 474, 1-(3,4,5-trifluorophenyl)-3-(trans-3-(((S)-4,7,8-trimethyl-6-oxo-5,6,7,8-tetrahydropteridin-2-yl)amino)cyclobutyl)urea]",1000 to 5000
10,"Cc1nc(NCc2cnn(Cc3ccc(OCC(F)(F)F)nc3)c2)nc2c1NC(=O)[C@H](C)N2C [Compound 390, (7S)-4,7,8-trimethyl-2-(((1-((6-(2,2,2-trifluoroethoxy)pyridin-3-yl)methyl)-1H-pyrazol-4-yl)methyl)amino)-7,8-dihydropteridin-6(5H)-one]",< 300
11,"CC[C@H]1C(=O)Nc2c(C)nc(NCc3cnn(Cc4cnc(F)c(OC)c4)c3)nc2N1C [Compound 394, (7S)-7-Ethyl-2-(((1-((6-fluoro-5-methoxypyridin-3-yl)methyl)-1H-pyrazol-4-yl)methyl)amino)-4,8-dimethyl-7,8-dihydropteridin-6(5H)-one]",< 300
12,"Cc1nc(N[C@H]2C[C@@H](NS(=O)(=O)c3cc(F)c(F)c(F)c3)C2)nc2c1NC(=O)[C@H](C)N2C [Compound 481, 3,4,5-trifluoro-N-(cis-3-(((S)-4,7,8-trimethyl-6-oxo-5,6,7,8-tetrahydropteridin-2-yl)amino)cyclobutyl)benzenesulfonamide]",300 to 1000
13,"C[C@H]1C(=O)Nc2cnc(N[C@H]3C[C@@H](Oc4ccc(F)cc4)C3)nc2N1C [Compound 241, (7S)-2-((cis-3-(4-fluorophenoxy)cyclobutyl)amino)-7,8-dimethyl-7,8-dihydropteridin-6(5H)-one]",≥ 5000
14,"Cc1nc(NCc2cnn(CCc3ccc(C(F)(F)F)nc3)c2)nc2c1NC(=O)[C@H](C)N2C [Compound 444, (7S)-4,7,8-trimethyl-2-(((1-(2-(6-(trifluoromethyl)pyridin-3-yl)ethyl)-1H-pyrazol-4-yl)methyl)amino)-7,8-dihydropteridin-6(5H)-one]",300 to 1000
15,"Cc1nc(NCc2cnn(Cc3ccc(C(F)(F)F)nc3)c2)nc2c1N(C)C(=O)[C@H](C)N2C [Compound 177, (7S)-4,5,7,8-tetramethyl-2-(((1-((6-(trifluoromethyl)pyridin-3-yl)methyl)-1H-pyrazol-4-yl)methyl)amino)-7,8-dihydropteridin-6(5H)-one]",< 300
16,"Cc1nc(NCc2cnn(Cc3ccnc(O)c3)c2)nc2c1NC(=O)[C@H](C)N2C [Compound 202, (7S)-2-(((1-((2-hydroxypyridin-4-yl)methyl)-1H-pyrazol-4-yl)methyl)amino)-4,7,8-trimethyl-7,8-dihydropteridin-6(5H)-one]",≥ 5000
17,"CC(C)c1ccccc1Cn1cc(CNc2ncc3c(n2)N(C)[C@@H](C)C(=O)N3)cn1 [Compound 79, (7S)-2-(((1-(2-isopropylbenzyl)-1H-pyrazol-4-yl)methyl)amino)-7,8-dimethyl-7,8-dihydropteridin-6(5H)-one]",< 300
18,"Cc1nc(NCc2cnn(Cc3ccnc(Cl)c3)c2)nc2c1NC(=O)[C@H](C(C)C)N2C [Compound 446, (7S)-2-(((1-((2-chloropyridin-4-yl)methyl)-1H-pyrazol-4-yl)methyl)amino)-7-isopropyl-4,8-dimethyl-7,8-dihydropteridin-6(5H)-one]",< 300
19,"C=C(C)c1nc(C(F)(F)F)ccc1Cn1cc(CNc2nc(C)c3c(n2)N(C)[C@@H](C)C(=O)N3)cn1 [Compound 387, (7S)-4,7,8-Trimethyl-2-(((1-((2-(prop-1-en-2-yl)-6-(trifluoromethyl)pyridin-3-yl)methyl)-1H-pyrazol-4-yl)methyl)amino)-7,8-dihydropteridin-6(5H)-one]",< 300
20,"CCN1C(=O)[C@H](CCO)N(CC)c2nc(NCc3cnn(Cc4cccc(C(F)(F)F)c4)c3)ncc21 [Compound 49, (7S)-5,8-diethyl-7-(2-hydroxyethyl)-2-(((1-(3-(trifluoromethyl)benzyl)-1H-pyrazol-4-yl)methyl)amino)-7,8-dihydropteridin-6(5H)-one]",< 300
21,"CN1C(=O)C(C)(C)N(C)c2nc(NCc3cnn(Cc4cnccc4C(F)(F)F)c3)ncc21 [Compound 236, 5,7,7,8-Tetramethyl-2-(((1-((4-(trifluoromethyl)pyridin-3-yl)methyl)-1H-pyrazol-4-yl)methyl)amino)-7,8-dihydropteridin-6(5H)-one]",< 300

# The remaining lines, values ahead:
row,IC50 [nM],Structure (SMILES)
1,< 300,"CO[C@H](C)[C@H]1C(=O)Nc2c(C)nc(N[C@H]3C[C@@H](CNc4cnc(C(F)(F)F)cn4)C3)nc2N1C [Compound 712, (S)-7-((R)—1-methoxyethyl)-4,8-dimethyl-2-((cis-3-(((5-(trifluoromethyl)pyrazin-2-yl)amino)methyl)cyclobutyl)amino)-7,8-dihydropteridin-6(5H)-one]"
2,≥ 5000,"Cc1nc(N[C@H]2C[C@H](Nc3cc(C(F)(F)F)ncn3)C2)nc2c1NC(=O)[C@H](C(C)C)N2C [Compound 530, (S)-7-isopropyl-4,8-dimethyl-2-((trans-3-((6-(trifluoromethyl)pyrimidin-4-yl)amino)cyclobutyl)amino)-7,8-dihydropteridin-6(5H)-one]"
3,1000 to 5000,"Cc1nc(N[C@H]2CCc3c2cnn3Cc2ccc(C(F)(F)F)nc2)nc2c1NC(=O)[C@H](C(C)C)N2C [Compound 519, (S)-7-isopropyl-4,8-dimethyl-2-(((S)-1-((6-(trifluoromethyl)pyridin-3-yl)methyl)-1,4,5,6-tetrahydrocyclopenta[c]pyrazol-4-yl)amino)-7,8-dihydropteridin-6(5H)-one]"
4,≥ 5000,"Cc1nc(N[C@H]2C[C@H](NC(=O)NC3CCC(F)(F)CC3)C2)nc2c1NC(=O)[C@H](C(C)C)N2C [Compound 524, 1-(4,4-difluorocyclohexyl)-3-(trans-3-(((S)-7-isopropyl-4,8-dimethyl-6-oxo-5,6,7,8-tetrahydropteridin-2-yl)amino)cyclobutyl)urea]"
5,< 300,"CC[C@H]1C(=O)Nc2c(C)nc(N[C@H]3C[C@@H](Cn4nccc4C(F)(F)F)C3)nc2N1C [Compound 593, (S)-7-ethyl-4,8-dimethyl-2-((cis-3-((5-(trifluoromethyl)-1H-pyrazol-1-yl)methyl)cyclobutyl)amino)-7,8-dihydropteridin-6(5H)-one]"
6,≥ 5000,"Cc1nc(N[C@H]2C[C@H](NC(=O)N3CCC(F)(F)CC3)C2)nc2c1NC(=O)[C@H](C(C)C)N2C [Compound 523, 4,4-difluoro-N-(trans-3-(((S)-7-isopropyl-4,8-dimethyl-6-oxo-5,6,7,8-tetrahydropteridin-2-yl)amino)cyclobutyl)piperidine-1-carboxamide]"
7,1000 to 5000,"Cc1nc(NC2CN(C(=O)c3ccn(C(F)F)n3)C2)nc2c1NC(=O)[C@H](C(C)C)N2C [Compound 614, (S)-2-((1-(1-(difluoromethyl)-1H-pyrazole-3-carbonyl)azetidin-3-yl)amino)-7-isopropyl-4,8-dimethyl-7,8-dihydropteridin-6(5H)-one]"
8,1000 to 5000,"Cc1nc(N[C@H]2C[C@H](Nc3ccc(C(F)(F)F)nn3)C2)nc2c1NC(=O)[C@H](C(C)C)N2C [Compound 555, (S)-7-isopropyl-4,8-dimethyl-2-((trans-3-((6-(trifluoromethyl)pyridazin-3-yl)amino)cyclobutyl)amino)-7,8-dihydropteridin-6(5H)-one]"

# Same assay, conditions: Homo sapiens, COLO 205, 5 h, R-isomer at C2 (corresponding to C2 S-isomer); Colo 205 TCF/LEF luciferase reporter, 5 h; read-out: TCF reporter Colo205 IC50
row,IC50 [nM],Structure (SMILES)
1,1000 to 5000,Cc1nc(NCc2cnn(Cc3ccc(C(F)(F)F)nc3)c2)nc2c1NC(=O)[C@@H](C)N2C [Compound I-1636]
